Experimental data as given in the supplement of paper PMC11061612.

Legend:
Test in all cases: combination Emax (second highest fraction inhibited in the dose matrix, 72 h); higher = more inhibition; extreme values may be limits of the assay
SJSA-1 (Osteosarcoma) = tested on: SJSA-1 (Osteosarcoma)
Summary of the method: (§1)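 After 24 hours at 37°C and 5% CO2 in 1536-well plates, cells in DMEM/F12 or RPMI plus 10% FBS received two-drug dose matrices for 72 hours. Viability came from CellTiter-Glo 2.0 luminescence and was scaled as inhibition, anchored at 0 by vehicle wells and at 1 by blank wells. Combination Emax is taken as the second-highest inhibition in the matrix, and Bliss excess as the observed combination effect less EA + EB − EA·EB, with EA and EB the single-agent effects.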

[1] = tested on: DAN-G (Pancreatic Carcinoma)
Summary of the method: as §1

[2] = tested on: JHH-4 (Hepatocellular Carcinoma)
Summary of the method: as §1

RD (Rhabdomyosarcoma) = tested on: RD (Rhabdomyosarcoma)
Summary of the method: as §1

[3] = tested on: NCCIT (Other Solid Carcinomas)
Summary of the method: as §1

[4] = tested on: NCI-H3122 (Lung Adenocarcinoma)
Summary of the method: as §1

[5] = tested on: KMS-12-BM (Plasma Cell Myeloma)
Summary of the method: as §1

[6] = tested on: NCI-H526 (Small Cell Lung Carcinoma)
Summary of the method: as §1

M059J (Glioblastoma) = tested on: M059J (Glioblastoma)
Summary of the method: as §1

[7] = tested on: MOLM-13 (Acute Myeloid Leukemia)
Summary of the method: as §1

[8] = tested on: KU812 (Chronic Myelogenous Leukemia)
Summary of the method: as §1

[9] = tested on: CW-2 (Colorectal Carcinoma)
Summary of the method: as §1

[10] = tested on: MOG-G-CCM (Low Grade Glioma)
Summary of the method: as §1

G-361 (Melanoma) = tested on: G-361 (Melanoma)
Summary of the method: as §1

[11] = tested on: NCI-H929 (Plasma Cell Myeloma)
Summary of the method: as §1

NCI-H2731 (Mesothelioma) = tested on: NCI-H2731 (Mesothelioma)
Summary of the method: as §1

[12] = tested on: SK-GT-2 (Gastric Carcinoma)
Summary of the method: as §1

[13] = tested on: HCC1419 (Breast Carcinoma)
Summary of the method: as §1

[14] = tested on: VMRC-RCZ (Kidney Carcinoma)
Summary of the method: as §1

[15] = tested on: RPMI-8226 (Plasma Cell Myeloma)
Summary of the method: as §1

Compound	combination Emax (SJSA-1 (Osteosarcoma))	combination Emax [1]	combination Emax [2]	combination Emax (RD (Rhabdomyosarcoma))	combination Emax [3]	combination Emax [4]	combination Emax [5]	combination Emax [6]	combination Emax (M059J (Glioblastoma))	combination Emax [7]	combination Emax [8]	combination Emax [9]	combination Emax [10]	combination Emax (G-361 (Melanoma))	combination Emax [11]	combination Emax (NCI-H2731 (Mesothelioma))	combination Emax [12]	combination Emax [13]	combination Emax [14]	combination Emax [15]
Cn1cnc2c(F)c(Nc3ccc(Br)cc3Cl)c(C(=O)NOCCO)cc21 [Selumetinib] + C=CCn1c(=O)c2cnc(Nc3ccc(N4CCN(C)CC4)cc3)nc2n1-c1cccc(C(C)(C)O)n1 [AZD1775] (first compound max 10 µM, partner max 1 µM)	0.449	0.811	0.728	0.669	0.773	0.78	0.916	0.69	0.262	1	0.965	0.464	0.357	0.826	0.684	0.194	0.652	0.0435	0.258	0.438
CCN(CCO)CCCOc1ccc2c(Nc3cc(CC(=O)Nc4cccc(F)c4)[nH]n3)ncnc2c1 [AZD2811] + C[C@@H]1COCCN1C2=NC(=NC(=C2)C3(CC3)[S@](=N)(=O)C)C4=C5C=CNC5=NC=C4 [AZD6738] (first compound max 1 µM, 7x7, partner max 10 µM)	0.289	0.648	0.0985	0.252	0.561	0.621	0.941	0.634	0.646	1	0.799	0.524	0.492	0.441	0.641	0.308	0.289	0.0919	0.279	0.967
CN(CCO)CC[C@H](CSc1ccccc1)Nc1ccc(S(=O)(=O)NC(=O)c2ccc(N3CCC([C@@H](O)c4ccccc4-c4ccc(Cl)cc4)CC3)cc2)cc1S(=O)(=O)C(F)(F)F [AZD4320] + C1CN(CCC1(C(=O)N[C@@H](CCO)C2=CC=C(C=C2)Cl)N)C3=NC=NC4=C3C=CN4 [Capivasertib] (first compound max 1 µM, 7x7, partner max 3 µM)	0.392	0.507	0.0846	0.575	0.378	0.285	1	0.929	0.486	1	0.737	0.158	0.528	0.234	0.969	0.197	0.403	0.879	0.37	0.925
CC1(C)CCC(CN2CCN(c3ccc(C(=O)NS(=O)(=O)c4ccc(NCC5CCOCC5)c([N+](=O)[O-])c4)c(Oc4cnc5[nH]ccc5c4)c3)CC2)=C(c2ccc(Cl)cc2)C1 [Venetoclax] + C[C@@H](Nc1cc(F)cc(F)c1)c1cc(C(=O)N(C)C)cc2c(=O)cc(N3CCOCC3)oc12 [AZD8186] (first compound max 1 µM, 7x7, partner max 3 µM)	0.123	0.0841	0.211	0.265	0.177	0.134	1	0.799	0.306	1	0.205	0.0925	0.398	0.248	0.811	0.107	0.0218	0.181	0.201	0.194
Cc1c2c(nn1C)CSCc1cc(n(C)n1)CSc1cc(c3ccccc3c1)OCCCc1c(C(=O)O)n(C)c3c-2c(Cl)ccc13 [AZD5991] + C1CN(CCC1(C(=O)N[C@@H](CCO)C2=CC=C(C=C2)Cl)N)C3=NC=NC4=C3C=CN4 [Capivasertib] (first compound max 1 µM, 7x7, partner max 3 µM)	0.374	0.401	0.211	0.535	0.82	0.419	1	0.47	0.44	1	0.858	0.179	0.326	1	1	0.21	0.132	0.555	0.336	0.976
CC1(C)CCC(CN2CCN(c3ccc(C(=O)NS(=O)(=O)c4ccc(NCC5CCOCC5)c([N+](=O)[O-])c4)c(Oc4cnc5[nH]ccc5c4)c3)CC2)=C(c2ccc(Cl)cc2)C1 [Venetoclax] + C=CCn1c(=O)c2cnc(Nc3ccc(N4CCN(C)CC4)cc3)nc2n1-c1cccc(C(C)(C)O)n1 [AZD1775] (first compound max 1 µM, partner max 1 µM)	0.453	0.747	0.343	0.546	0.907	0.734	1	0.835	0.713	1	0.776	0.311	0.688	0.589	0.659	0.286	0.597	0.254	0.467	0.538
